From article PMC3132048, “Treatment of experimental adjuvant arthritis with a novel folate receptor-targeted folic acid-aminopterin conjugate” (Arthritis Research & Therapy, 2011)
Values joined by “and” are separate entries in the source; they are usually repeats but may differ in a detail not shown here. Equal values may be shown once.

How the values were obtained:
[1] = tested on: cytokine/chemokine release by rat TG-macs; test: Rat cytokine array analysis after LPS/IFNγ co-stimulation; assay type: cell-based; conditions: 100 nM, 2-hour pulse, 70-hour chase, LPS 5 μg/ml plus IFNγ 100 ng/ml last 24 hours
Description: This analysis was performed on rat TG-macs to compare EC0746 against AMT and MTX for their abilities to inhibit cytokine production after LPS/IFNγ co-stimulation. Using our standard condition of 2-hour pulse plus a 70-hour chase period, rat TG-macs (harvested the day before) were given vehicle (media only), EC0746 (100 nM), EC0746 (100 nM) plus 100-fold molar excess of FA (10 μM), or FA alone (10 μM). For unconjugated base drugs, 100 nM AMT and MTX were present continuously for the entire 72-hour incubation period. Twenty-four hours prior to the end of incubation, LPS (5 μg/ml) and IFNγ (100 ng/ml) were added to the cells to stimulate cytokine production. The presence of cytokines/chemokines in the culture media was detected using a rat cytokine antibody array kit (R&D Systems) capable of detecting 29 analytes in duplicate spots. The total pixel intensity for each spot in the array was quantitated using the NIH ImageJ software, subtracted from the background, and averaged for each analyte.

[2] = Plasma pharmacokinetics after single subcutaneous dose; assay type: in vivo, rat
Description: Female Lewis rats with jugular vein catheters (Harlan Sprague Dawley) were used to assess the plasma pharmacokinetics of EC0746 and unconjugated AMT. The animals were divided into two main groups, one given a single dose of EC0746 s.c. and the second a single dose of AMT s.c., both at 500 nmol/kg. Whole blood samples (300 μl) were collected from three animals per time point at the following time points: 1 minute, 10 minutes, 30 minutes, 1 hour, 2 hours, 3 hours, 4 hours, and 8 hours after injection. The blood samples were placed into anticoagulant tubes containing 1.7 mg/ml K3EDTA and 0.35 mg/ml N-maleoyl-β-alanine (0.35 mg/ml) in a 0.15% acetic acid solution. Plasma samples were obtained by centrifugation for 3 minutes at ~2,000 × g and stored at -80°C. The amounts of EC0746 and AMT in the plasma and the two primary metabolites of EC0746 (AMT and AMT hydrazide) were determined by liquid chromatography/mass spectrometry/mass spectrometry.

[3] = biological target: T1, dihydrofolate reductase (DHFR) (Mus musculus, UniProt P00375); test: Dihydrofolate reductase inhibition assay in RAW264.7 whole cell lysates; assay type: cell-based, murine; conditions: 100 nM plus 100-fold excess FA (10 μM), 2-hour pulse, 22-hour chase
T1 construct: endogenous in cells; host or cells: RAW264.7 cells (FR-positive subclone of ATCC TIB71)
T1 sequence (P00375 1-187): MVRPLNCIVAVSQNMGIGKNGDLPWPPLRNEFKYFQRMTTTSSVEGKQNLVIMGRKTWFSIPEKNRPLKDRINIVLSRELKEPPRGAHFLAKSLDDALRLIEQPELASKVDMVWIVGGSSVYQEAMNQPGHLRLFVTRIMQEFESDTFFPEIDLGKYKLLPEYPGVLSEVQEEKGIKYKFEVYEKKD
Description: RAW264.7 cells growing in FFRPMI medium in 10 cm cell culture dishes (BD Falcon, Lincoln Park, NJ, USA) were treated with EC0746 (100 nM), EC0746 (100 nM) plus 100-fold molar excess of FA (10 μM), or FA alone (10 μM). After a 2-hour exposure, the drug-containing media were replaced and the cells were allowed to incubate further for 22 hours in fresh FFRPMI medium (referred in the text as a 22-hour chase). Meanwhile, AMT and MTX were kept at 100 nM for the entire 24-hour incubation period. All cells were subsequently lysed in the radioimmunoprecipitation assay lysis buffer, and DHFR activities in the whole cell lysates were determined using a commercial DHFR assay kit (Sigma-Aldrich). This spectrophotometric assay monitors the enzymatic conversion of dihydrofolic acid to tetrahydrofolic acid by DHFR and the disappearance of the co-factor nicotinamide adenine dinucleotide phosphate at 340 nm. The results were normalized to the values of the untreated control cells.

[4] = biological target: T2, human FRβ (CHO-FRβ cells) (Homo sapiens, UniProt P14207); test: Relative affinity assay: displacement of [3H]FA from CHO-FRβ cells; assay type: binding; conditions: 37°C, competitor of [3H]FA, inverse molar ratio to displace 50%
T2 construct: host or cells: CHO-K1 cells
T2 sequence (P14207 17-255): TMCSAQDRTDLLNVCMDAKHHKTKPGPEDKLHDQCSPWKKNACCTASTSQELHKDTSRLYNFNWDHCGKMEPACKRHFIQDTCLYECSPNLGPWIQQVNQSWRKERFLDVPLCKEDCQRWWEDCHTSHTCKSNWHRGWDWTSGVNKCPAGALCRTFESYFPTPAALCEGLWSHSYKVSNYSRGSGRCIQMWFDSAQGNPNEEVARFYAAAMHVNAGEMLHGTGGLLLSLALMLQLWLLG
Description: The relative affinities of EC0746, AMT, and MTX were determined according to a previously established method except that both KB cells and CHO-FRβ cells were used as the sources of FR [33]. KB cells are a human cancer cell line known for elevated expression of FRα. CHO-FRβ cells were obtained from Manohar Ratnam, Department of Biochemistry and Cancer Biology, The University of Toledo (Toledo, OH, USA). This cell line was originally generated by stable integration and amplification of a human FRβ cDNA expression construct in CHO-K1 cells.

[5] = tested on: RAW264.7 cells; assay type: cell-based, murine
Description: RAW264.7 cells in 96-well plates (3.5 × 10^4 cells/well) were treated with 10-fold serial dilutions of EC0746 (≤1 μM) in FFRPMI medium without and with 100-fold molar excess of FA. After a 2-hour exposure, the drug-containing media were replaced and the cells were allowed to incubate further for 70 hours (referred in the text as a 70-hour chase). In comparison, the cells were also treated continuously with AMT for 72 hours. Four hours prior to the end of incubation, LPS was added to the treated cells at a final concentration of 100 ng/ml. Then 100 μl culture supernatants were collected for TNFα analysis by ELISA. The cell viability was assessed by adding XTT to the remaining media for an additional 4 hours following the manufacturer's instructions. To evaluation of a cytostatic effect, RAW264.7 cells seeded at 1 × 10^6 cells/well in six-well plates were subjected to 2-hour exposure and a 70-hour chase with 0, 0.1, 10, and 1000 nM EC0746 without and with excess FA. At the end of the incubation (no LPS added), the surviving cells (that is, still viable cells) were recovered and redistributed in equal numbers in fresh medium for an additional 72 hours. The cell proliferation was again assessed by the XTT assay. All results were expressed as the percentage absorbance (minus background) relative to the untreated control cells.

[6] = Preliminary short-term toxicity / MTD in folate-deficient healthy rats; assay type: in vivo, rat; conditions: folate-deficient rats
Description: The short-term toxicity and MTD of EC0746 and AMT were evaluated in healthy rats following the standard BIW subcutaneous dosing regimen used for efficacy studies. Further, these animals were put on a folate-deficient diet for ~20 days before treatment to match the folate deficiency status of AIA rats used for therapy. The folate-deficient but nonarthritic animals were thus given increasing doses of EC0746 and AMT for two consecutive weeks on a BIW basis. […] Standard hematologic and blood chemistry parameters were examined as needed along with histopathology.

For Nc1nc(N)c2nc(CNc3ccc(C(=O)N[C@@H](CCC(=O)NNC(=O)OCCSSC[C@H](NC(=O)[C@H](CCC(=O)NC[C@H](O)[C@@H](O)[C@H](O)[C@H](O)CO)NC(=O)[C@H](CCC(=O)O)NC(=O)[C@H](CCC(=O)NC[C@H](O)[C@@H](O)[C@H](O)[C@H](O)CO)NC(=O)[C@H](CCC(=O)O)NC(=O)[C@H](CCC(=O)NC[C@H](O)[C@@H](O)[C@H](O)[C@H](O)CO)NC(=O)CC[C@H](NC(=O)c4ccc(NCc5cnc6nc(N)[nH]c(=O)c6n5)cc4)C(=O)O)C(=O)O)C(=O)O)cc3)cnc2n1 [EC0746], the “Number of released cytokines/chemokines (of ~19) showing FR-specific inhibition” value [1] was 11, the “Active drug exposure/release (AMT plus AMT hydrazide) detected in plasma, based on AUC” value ([2]; EC0746 500 nmol/kg s.c., 8-hour collection period) was ~ 18% and the “Area under the curve” value ([2]; after single s.c. dose of EC0746 500 nmol/kg, 8-hour collection, analyte = label) was 32.5 nmol·min/mL. For the same compound, the Elimination half-life ([2]; after single s.c. dose of EC0746 500 nmol/kg, analyte = label) was ~ 35 minutes, the “DHFR inhibitory activity with excess FA” value [3] was “blocked by excess FA” and the “Relative affinity value (FA = 1)” value [4] was 0.27. The IC50 ([5]; 2-hour pulse, 70-hour chase, read-out: Relative 50% inhibitory concentration, inhibition of cell proliferation (XTT)) was ~0.3 nM, the “Antiproliferative effect competitive in presence of excess FA” value ([5]; 100-fold molar excess FA) was 100% and the “Proliferation of surviving cells redispersed into fresh medium” value ([5]; additional 72-hour incubation after 2-hour pulse plus 70-hour chase) was “could no longer divide”. For the same compound, the Maximum growth inhibition ([5]; concentrations ≥1 nM, 2-hour pulse, 70-hour chase) was ~ 50%, the “Gastrointestinal-associated side effects at respective MTD doses” value ([6]; compared with AMT) was “less of the gastrointestinal-associated side effects than AMT” and the “Difference in toxicity versus AMT (less toxic)” value ([6]; s.c., ratio of MTDs) was ~ 40 fold and 40 fold.
